# In patent US4657907A, “Low dosage compositions of finely pulverized 2,4-diamino-6-(2,5-dichlorophenyl)-1,3,5-triazine and pharmaceutically acceptable acid addition salts thereof and administration thereof” (Nippon Shinyaku Co., Ltd., priority 1981, dated 1987):
# Values joined by “and” are separate entries in the source; they are usually repeats but may differ in a detail not shown here. Equal entries are not always repeated.
# Tests used:
# [1] = tested on: ulcer formation induced by stress; test: Inhibition of stress ulcer formation (immobilization-water immersion method), oral; assay type: in vivo, rats; conditions: for dose dependency of stress ulcer inhibition: 0.3 to 30 mg/kg
# Excerpt: Since 50 microns is a common particle diameter in pharmaceutical preparations, it was most surprising that such significant and important advantages resulted. Inhibition activity against stress ulcer in rats of the compound and pharmaceutically acceptable acid addition salts in the finely pulverized form are set forth in Table 2.
# ulcers = test: Clinical experiments: rate of recovery or cure of ulcers in patients; assay type: in vivo, humans
# Procedure: Clinical experiments were conducted wherein patients were given 1, 2 and 4 mg/day of 2,4-diamino-6-(2,5-dichlorophenyl)-1,3,5-triazine in separate groups. There were 133 patients participating in the group and 123 were separately analyzed (groups of 20, 46 and 57). The rate of recovery or cure of ulcers during those clinical trials over the period indicated was as follows: […]
# [2] = Clinical experiments: side effects in patients; assay type: in vivo, humans; conditions: 4 mg group
# Procedure: Clinical experiments were conducted wherein patients were given 1, 2 and 4 mg/day of 2,4-diamino-6-(2,5-dichlorophenyl)-1,3,5-triazine in separate groups. There were 133 patients participating in the group and 123 were separately analyzed (groups of 20, 46 and 57). The rate of recovery or cure of ulcers during those clinical trials over the period indicated was as follows:
# Only one side effect was noted. There was an increase in transaminase (GOT and GPT) observed in one case (1.8% of the total) in the 4 mg group.
# [3] = tested on: ulcer formation induced by stress; test: Inhibition of stress ulcer formation (immobilization-water immersion method), oral; assay type: in vivo, rats; conditions: average particle diameter about 50 microns; for Inhibition Rate (stress ulcer): three repeat values
# rats = test: Acute toxicity (LD50), intraperitoneal injection; assay type: in vivo; conditions: dosages up to 3000 mg/kg, average particle diameter about 8 microns
# Excerpt: This decrease in toxicity is totally unexpected and represents a significant and important advance in the art.
# [4] = Body weight increase inhibition on chronic oral administration; assay type: in vivo, rats; conditions: for body weight increase: 10 mg/kg or more per day, chronic oral, rats
# Excerpt: A further advantage resulted from body weight increase inhibition which is one of the main side effects of the compound and salts of the present invention. […] This is a side effect of triazines of this type.
# The average particle sizes were 8 microns for the compound according our copending application as compared to the same compound having an average particle diameter of 50 microns.
# [5] = Average particle diameter after jet milling, Coulter Counter TA-II; assay type: physicochemical; conditions: jet mill PJM-100 NP; dispersed in physiological saline with Tween-80
# Procedure: 2,4-diamino-6-(2,5-dichlorophenyl)-1,3,5-triazine and pharmaceutically acceptable acid addition salts thereof may be finely pulverized to achieve the average particle diameter of 20 microns or less by using jet Mill PJM-100NP (Nippon Newmatic MEG Co.). The pulverization is carried out by feeding 2 kg or less of the substance per hour. An average particle diameter of about 8 microns may be prepared in that manner. If necessary, auxiliary pulverizing agents such as starch, anhydrous silicic acid, etc. may be used. In measuring average particle size, the powder is dispersed in physiological saline solution containing one drop of Tween-80 with the aid of an ultrasonic homogenizer for 30 seconds and measured by Coleter Counter TA-II (Coulter Electronics Co., U.S.A.) equipped with aperture tube of 100 microns.
# 2,4-Diamino-6-(2,5-dichlorophenyl)-1,3,5-triazine is powdered by supplying it at a rate of not more than 2 kg/hour to a Jet Mill PJM-100 NP (Nippon Newmatic Mfg. Co.). The pulverized pharmaceutical is dispersed in a physiological saline solution containing one drop of Tween-80 by the use of ultrasonic homogenizer for 30 seconds and their particle diameter in average is measured by Coulter Counter TA-II (Coleter Eelectronics Co., USA) and the result is about 8 microns.
# [6] = 0.3 mg/kg, finely pulverized form
# [7] = 1.0 mg/kg, finely pulverized form
# [8] = 3.0 mg/kg, finely pulverized form
# [9] = 10 mg/kg, finely pulverized form
structure (smiles),measurement,setting,value
"Nc1nc(N)nc(-c2cc(Cl)ccc2Cl)n1 [Substance (I), 2,4-diamino-6-(2,5-dichlorophenyl)-1,3,5-triazine]",Inhibition Rate (stress ulcer),[1]; [6],33%
same,Inhibition Rate (stress ulcer),[1]; [7],45%
same,Inhibition Rate (stress ulcer),[1]; [8],63%
same,Inhibition Rate (stress ulcer),[1]; [9],70%
same,Inhibition Rate (stress ulcer),"[1]; 30 mg/kg, finely pulverized form",85%
same,dose dependency of stress ulcer inhibition,[1]; finely pulverized form,linear dose dependency
same,activity on ulcer formation induced by stress,"[1]; oral, 1 mg/kg, finely pulverized (compound of earlier invention)",effective
same,rate of recovery or cure of ulcers,"ulcers; 1 mg/day, 4 weeks",20.0%
same,rate of recovery or cure of ulcers,"ulcers; 1 mg/day, 8 weeks",50.0%
same,rate of recovery or cure of ulcers,"ulcers; 2 mg/day, 4 weeks",17.4%
same,rate of recovery or cure of ulcers,"ulcers; 2 mg/day, 8 weeks",47.8%
same,rate of recovery or cure of ulcers,"ulcers; 4 mg/day, 4 weeks",41.6%
same,rate of recovery or cure of ulcers,"ulcers; 4 mg/day, 8 weeks",56.1%
same,"recovery rate of ulcer improvement, degree of ulcer, effect against subjective and non-subjective symptoms","ulcers; hospitalized patients, 4 mg group compared with other groups",marked superiority
same,"increase in transaminase (GOT and GPT), cases",[2]; only side effect noted,one case
same,"increase in transaminase (GOT and GPT), incidence",[2]; printed as % of the total,1.8%
same,Inhibition Rate (stress ulcer),[3]; 0.37 mg/kg per os,37% and 46% and 29%
same,Inhibition Rate (stress ulcer),[3]; 3.72 mg/kg per os,62% and 47% and 33%
same,activity on ulcer formation induced by stress,"[3]; oral, 5 mg/kg",ineffective
same,lethality,rats,no rats were killed
same,body weight increase,[4],body weight increase was inhibited
same,recovery of body weight,[4]; about 8 microns compared to about 50 microns,far faster
same,body weight increase inhibition (side effect),[4]; average particle diameter about 8 microns,only transient and moderate
same,average particle diameter,[5],about 8 microns
Nc1nc(N)nc(-c2cc(Cl)ccc2Cl)n1 [Substance (II)],Inhibition Rate (stress ulcer),[1]; [6],35%
same,Inhibition Rate (stress ulcer),[1]; [7],51%
same,Inhibition Rate (stress ulcer),[1]; [8],70%
same,Inhibition Rate (stress ulcer),[1]; [9],85%
same,dose dependency of stress ulcer inhibition,[1]; finely pulverized form,linear dose dependency
same,ED50 (stress ulcer inhibition),"[1]; per os, finely pulverized form, from Table 2 data",0.90 mg/kg
same,body weight increase,[4],body weight increase was inhibited
same,improvement in body weight side effect,[4]; maleate salt according to the invention compared with maleate salt of about 50 microns,particularly dramatic
